In patent US20130274174A1, “THERAPEUTIC COMBINATION OF DAPTOMYCIN AND PROTEIN SYNTHESIS INHIBITOR ANTIBIOTIC, AND METHODS OF USE” (priority 2011, published 2013):
≈ marks a conversion by molar mass, not a printed value. Entries after “also recorded” stand apart in the source; their conditions may differ. Where two headings read alike, the source gives them in different places.

How the values were obtained:
[1] = test system: Staphylococcus aureus 100 (ATCC 29213); assay: FIC checkerboard broth microdilution, control combinations; assay type: cell-based; details: ATCC29213, agent alone, repeated determinations by date
Method: Test articles of stock solutions of daptomycin (Cubist, lot MCB2007) and TR-700 were prepared at 40 times the final target concentration in DMSO:water (1:1). DMSO was added first, the solutions were allowed to stand for 60 minutes and then the water was added. […] The final DMSO concentration was 2.5%. The final drug concentrations in the FIC assay plates were set to bracket the MIC value of each test article for each test organism, unless the strain was totally resistant to the test article.
The test organisms were originally received from clinical sources, or from the American Type Culture Collection. […] Aliquots were then frozen at −80° C.
The broth was prepared at 1.05× normal weight/volume to offset the 5% volume of the drugs in the final test plates.
Antimicrob. Agents Chemother.
These plates were used to prepare the drug “mother plates” which provided the serial drug dilutions for the drug combination plates.
The “daughter plates” were loaded with 180 μL of test medium using the Multidrop 384. Then, the Multimek 96 was used to transfer 10 μL of drug solution from each well of the drug combination mother plate to each corresponding well of the daughter plate in a single step.

S. aureus [2] = details: Locke et al. 2009; cited from earlier work
S. aureus [3] = details: co-selection with a subinhibitory concentration; Berti et al. 2012; cited from earlier work
S. aureus MW2 (NRS123) = assay: microbe, parasite or virus in culture; assay type: cell-based, Staphylococcus aureus; details: for MIC: Staphylococcus aureus
Method: S. aureus strains MW2 (NARSA collection clinical MRSA isolate, NRS123) and ATCC 33591 (MRSA strain from the American Type Culture Collection) were cultured on Mueller-Hinton II cation adjusted (MHA) medium in 90×90 mm square petri dishes. MHA containing ¼ of the MIC value of TR-700, TR-705, LZD, TIA, CLI, TET, or VAN, TMP/SMX throughout the plate and a continuous linear gradient of DAP across the plate was used to passage MW2. ATCC 33591 was passaged with ¼ of the MIC of a subset of these drugs (TR-700, TMP/SMX, and VAN). A DAP-only control passage group was included for both strains. DAP gradients were created by pouring two layers of media as previously described (Bryson, V., et al. 1952. Microbial selection. Science 116:45-51; Locke, J. B., et al., 2009. Antimicrob. Agents Chemother. 53:5265-5274). Following each passage the leading edge of growth (i.e., most resistant cells) was resuspended in phosphate buffered saline (PBS) to an absorbance of 0.30 OD600 and a 100 μl aliquot containing ˜3.0×10^7 CFU (colony-forming units) was spread on to the proceeding passage plate. The starting maximal DAP concentration was 2 μg/ml and was increased in two-fold increments when the leading edge of growth surpassed the half way point on the plate. A glycerol stock was made from the total cell population for each culture condition for each passage. Thirty serial passages were completed for each treatment group.

SMILES: O=C(O)[C@H]1/C(=C/CO)O[C@@H]2CC(=O)N21 [Clavulanate]
- MIC [1]: 16 mg/L

SMILES: CC(=O)NC[C@H]1CN(c2ccc(N3CCOCC3)c(F)c2)C(=O)O1 [LZD, linezolid]
- S. aureus mutation frequency higher than for TR-700 (S. aureus [2]): > 10 fold
- effect on preventing the emergence of DAP^ns S. aureus (S. aureus [3]): did not have any effect on preventing the emergence of DAP^ns S. aureus
- MIC (S. aureus MW2 (NRS123); NRS123, passage 0, NRS123 WT): 2 mg/L (≈ 5.93 µM)
- MIC (S. aureus MW2 (NRS123); NRS123, passage 5, selection group DAP): 2 mg/L (≈ 5.93 µM)
- MIC (S. aureus MW2 (NRS123); NRS123, passage 5, selection group DAP + CLI): 2 mg/L
- MIC (S. aureus MW2 (NRS123); NRS123, passage 5, selection group DAP + LZD): 2 mg/L
- MIC (S. aureus MW2 (NRS123); NRS123, passage 5, selection group DAP + TET): 2 mg/L
- MIC (S. aureus MW2 (NRS123); NRS123, passage 5, selection group DAP + TIA): 2 mg/L
- MIC (S. aureus MW2 (NRS123); NRS123, passage 5, selection group DAP + TMP/SMX): 1 mg/L
- MIC (S. aureus MW2 (NRS123); NRS123, passage 5, selection group DAP + TR-700): 2 mg/L
- MIC (S. aureus MW2 (NRS123); NRS123, passage 5, selection group DAP + TR-705): 2 mg/L
- MIC (S. aureus MW2 (NRS123); NRS123, passage 5, selection group DAP + VAN): 1 mg/L
- MIC (S. aureus MW2 (NRS123); NRS123, passage 10, selection group DAP): 2 mg/L (≈ 5.93 µM)
- MIC (S. aureus MW2 (NRS123); NRS123, passage 10, selection group DAP + CLI): 2 mg/L
- MIC (S. aureus MW2 (NRS123); NRS123, passage 10, selection group DAP + LZD): 2 mg/L
- MIC (S. aureus MW2 (NRS123); NRS123, passage 10, selection group DAP + TET): 2 mg/L
- MIC (S. aureus MW2 (NRS123); NRS123, passage 10, selection group DAP + TIA): 2 mg/L
- MIC (S. aureus MW2 (NRS123); NRS123, passage 10, selection group DAP + TMP/SMX): 2 mg/L
- MIC (S. aureus MW2 (NRS123); NRS123, passage 10, selection group DAP + TR-700): 2 mg/L
- MIC (S. aureus MW2 (NRS123); NRS123, passage 10, selection group DAP + TR-705): 2 mg/L
- MIC (S. aureus MW2 (NRS123); NRS123, passage 10, selection group DAP + VAN): 1 mg/L
- MIC (S. aureus MW2 (NRS123); NRS123, passage 15, selection group DAP): 1 mg/L (≈ 2.96 µM)
- MIC (S. aureus MW2 (NRS123); NRS123, passage 15, selection group DAP + CLI): 2 mg/L
- MIC (S. aureus MW2 (NRS123); NRS123, passage 15, selection group DAP + LZD): 2 mg/L
- MIC (S. aureus MW2 (NRS123); NRS123, passage 15, selection group DAP + TET): 1 mg/L
- MIC (S. aureus MW2 (NRS123); NRS123, passage 15, selection group DAP + TIA): 2 mg/L
- MIC (S. aureus MW2 (NRS123); NRS123, passage 15, selection group DAP + TMP/SMX): 2 mg/L
- MIC (S. aureus MW2 (NRS123); NRS123, passage 15, selection group DAP + TR-700): 2 mg/L
- MIC (S. aureus MW2 (NRS123); NRS123, passage 15, selection group DAP + TR-705): 2 mg/L
- MIC (S. aureus MW2 (NRS123); NRS123, passage 15, selection group DAP + VAN): 1 mg/L
- MIC (S. aureus MW2 (NRS123); NRS123, passage 20, selection group DAP): 2 mg/L (≈ 5.93 µM)
- MIC (S. aureus MW2 (NRS123); NRS123, passage 20, selection group DAP + CLI): 2 mg/L
- MIC (S. aureus MW2 (NRS123); NRS123, passage 20, selection group DAP + LZD): 2 mg/L
- MIC (S. aureus MW2 (NRS123); NRS123, passage 20, selection group DAP + TET): 1 mg/L
- MIC (S. aureus MW2 (NRS123); NRS123, passage 20, selection group DAP + TIA): 2 mg/L
- MIC (S. aureus MW2 (NRS123); NRS123, passage 20, selection group DAP + TMP/SMX): 2 mg/L
- MIC (S. aureus MW2 (NRS123); NRS123, passage 20, selection group DAP + TR-700): 2 mg/L
- MIC (S. aureus MW2 (NRS123); NRS123, passage 20, selection group DAP + TR-705): 2 mg/L
- MIC (S. aureus MW2 (NRS123); NRS123, passage 20, selection group DAP + VAN): 1 mg/L
- MIC (S. aureus MW2 (NRS123); NRS123, passage 25, selection group DAP): 1 mg/L (≈ 2.96 µM)
- MIC (S. aureus MW2 (NRS123); NRS123, passage 25, selection group DAP + CLI): 2 mg/L
- MIC (S. aureus MW2 (NRS123); NRS123, passage 25, selection group DAP + LZD): 1 mg/L
- MIC (S. aureus MW2 (NRS123); NRS123, passage 25, selection group DAP + TET): 1 mg/L
- MIC (S. aureus MW2 (NRS123); NRS123, passage 25, selection group DAP + TIA): 2 mg/L
- MIC (S. aureus MW2 (NRS123); NRS123, passage 25, selection group DAP + TMP/SMX): 2 mg/L
- MIC (S. aureus MW2 (NRS123); NRS123, passage 25, selection group DAP + TR-700): 2 mg/L
- MIC (S. aureus MW2 (NRS123); NRS123, passage 25, selection group DAP + TR-705): 2 mg/L
- MIC (S. aureus MW2 (NRS123); NRS123, passage 25, selection group DAP + VAN): 1 mg/L
- MIC (S. aureus MW2 (NRS123); NRS123, passage 30, selection group DAP): 1 mg/L (≈ 2.96 µM)
- MIC (S. aureus MW2 (NRS123); NRS123, passage 30, selection group DAP + CLI): 2 mg/L
- MIC (S. aureus MW2 (NRS123); NRS123, passage 30, selection group DAP + LZD): 2 mg/L
- MIC (S. aureus MW2 (NRS123); NRS123, passage 30, selection group DAP + TET): 1 mg/L
- MIC (S. aureus MW2 (NRS123); NRS123, passage 30, selection group DAP + TIA): 2 mg/L
- MIC (S. aureus MW2 (NRS123); NRS123, passage 30, selection group DAP + TMP/SMX): 2 mg/L
- MIC (S. aureus MW2 (NRS123); NRS123, passage 30, selection group DAP + TR-700): 2 mg/L
- MIC (S. aureus MW2 (NRS123); NRS123, passage 30, selection group DAP + TR-705): 2 mg/L
- MIC (S. aureus MW2 (NRS123); NRS123, passage 30, selection group DAP + VAN): 2 mg/L
- MIC (S. aureus MW2 (NRS123); NRS123, read-out: DAP MIC by the end of the experiment (selection of DAP^ns strains), MW2, passaged with DAP alone or with co-selecting agent at ¼ MIC, CLSI breakpoint): > 1 mg/L
- effect on preventing the emergence of DAP^ns (S. aureus MW2 (NRS123); co-selection at ¼ MIC, VAN: both backgrounds): did not prevent the emergence of DAP non-susceptibility; also recorded: no effect on preventing DAP^ns
- susceptibility to the co-selecting agent in its co-selection group (S. aureus MW2 (NRS123); over the course of 30 passages): no increases in LZD MIC values over WT were observed
